Where “and” joins values, the source holds several entries; their conditions need not be identical. Equal values may be shown once.
What was measured:
[1] = target: T1, STAT5b SH2 domain (Homo sapiens, UniProt P51692); assay: Fluorescence polarization (FP)-based competitive binding assay, wild-type STAT5b
T1 construct: His; made in house
T1 sequence (P51692 1-787): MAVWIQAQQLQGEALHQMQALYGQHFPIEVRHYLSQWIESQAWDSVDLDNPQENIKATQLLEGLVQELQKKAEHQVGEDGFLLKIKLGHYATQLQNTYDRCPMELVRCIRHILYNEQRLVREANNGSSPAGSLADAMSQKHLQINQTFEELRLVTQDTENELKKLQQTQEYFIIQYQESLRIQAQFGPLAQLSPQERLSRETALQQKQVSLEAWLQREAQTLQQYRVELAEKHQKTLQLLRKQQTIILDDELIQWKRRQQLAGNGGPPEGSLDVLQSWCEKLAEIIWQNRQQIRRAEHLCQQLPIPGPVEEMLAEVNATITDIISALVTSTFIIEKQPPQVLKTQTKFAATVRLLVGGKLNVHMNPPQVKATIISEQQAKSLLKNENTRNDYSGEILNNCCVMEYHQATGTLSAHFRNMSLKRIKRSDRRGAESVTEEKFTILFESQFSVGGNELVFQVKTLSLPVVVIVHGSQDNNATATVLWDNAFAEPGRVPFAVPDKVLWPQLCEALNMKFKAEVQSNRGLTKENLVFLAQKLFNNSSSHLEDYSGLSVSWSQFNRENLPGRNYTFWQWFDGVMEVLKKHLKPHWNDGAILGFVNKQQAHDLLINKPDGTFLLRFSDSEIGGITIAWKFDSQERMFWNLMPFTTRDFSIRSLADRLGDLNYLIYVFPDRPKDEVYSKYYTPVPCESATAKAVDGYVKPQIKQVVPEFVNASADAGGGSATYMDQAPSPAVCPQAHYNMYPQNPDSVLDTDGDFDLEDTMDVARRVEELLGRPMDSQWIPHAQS
Experimental: (§1) Fluorescence polarization assays
(§2) The ability of test compounds to displace 5-carboxyfluorescein-GY(PO3H2)LVLDKW (final concentration: 10 nM) from the SH2 domain of STAT5a/b proteins was analyzed. Proteins […]
(§3) was applied in dilution series comprising the following concentrations: 0.024 – 200 µM […]
(§4) and 0.146 – 600 µM (STAT5b Arg566Glu), respectively. The assays were performed in buffer containing 10 mM Tris, 50 mM NaCl, 1 mM DTT, 1 mM EDTA and 0.1% (v/v) NP-40. Fosfosal was dissolved in DMSO. STAT5a/b proteins and fosfosal were incubated at room temperature for 1 h before adding peptide. Samples were transferred to 384-well microtiter plates and fluorescence polarization was read after a further 1 h incubation time. All measurements were performed in triplicate (n=3), except for STAT5b (n=6) and STAT5a Trp566Arg (n=4). Percent binding was calculated based on a logarithmic curve fit using OriginPro 8G software. IC50 values were converted to Ki values using the published equation.[4] […]
[2] N. Elumalai, A. Berg, K. Natarajan, A. Scharow, T. Berg, Angew. Chem. Int. Ed. 2015, […]
[3] M. Gräber, W. Janczyk, B. Sperl, N. Elumalai, C. Kozany, F. Hausch, T. A. Holak, T.
(§5) [4] Z. Nikolovska-Coleska, R. Wang, X. Fang, H. Pan, Y. Tomita, P. Li, P. P. Roller, K.
(§6) Krajewski, N. G. Saito, J. A. Stuckey, S. Wang, Anal. Biochem. 2004, 332, 261-273.

[2] = target: T2, STAT5a Trp566Arg (Homo sapiens, UniProt P42229, W566R); assay: FP-based competitive binding assay, STAT5a Trp566Arg
T2 construct: His; made in house
T2 sequence (P42229 1-794 W566R): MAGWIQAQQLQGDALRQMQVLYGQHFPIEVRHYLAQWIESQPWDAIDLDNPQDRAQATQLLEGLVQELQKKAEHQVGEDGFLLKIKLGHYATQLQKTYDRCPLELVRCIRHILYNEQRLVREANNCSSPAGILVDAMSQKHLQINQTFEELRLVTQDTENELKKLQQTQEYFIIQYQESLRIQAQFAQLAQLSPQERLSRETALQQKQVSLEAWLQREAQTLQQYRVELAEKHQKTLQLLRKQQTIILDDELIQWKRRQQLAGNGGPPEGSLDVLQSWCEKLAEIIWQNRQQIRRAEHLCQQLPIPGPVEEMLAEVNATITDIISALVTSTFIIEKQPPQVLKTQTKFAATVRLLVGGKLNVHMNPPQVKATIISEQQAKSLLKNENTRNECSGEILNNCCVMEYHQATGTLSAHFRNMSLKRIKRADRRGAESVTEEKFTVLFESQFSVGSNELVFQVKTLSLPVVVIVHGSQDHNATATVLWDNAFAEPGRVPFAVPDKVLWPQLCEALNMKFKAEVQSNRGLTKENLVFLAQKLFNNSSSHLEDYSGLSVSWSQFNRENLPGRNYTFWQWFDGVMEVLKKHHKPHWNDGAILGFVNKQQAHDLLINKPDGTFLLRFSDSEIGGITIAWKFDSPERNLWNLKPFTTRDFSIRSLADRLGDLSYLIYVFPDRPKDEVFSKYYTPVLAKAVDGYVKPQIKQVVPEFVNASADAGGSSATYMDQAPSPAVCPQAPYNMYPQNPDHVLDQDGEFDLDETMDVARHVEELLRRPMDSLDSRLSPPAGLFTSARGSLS
Experimental: as §1, §2, §3, §4, §5, §6

Row | selectivity for STAT5b over STAT5a ([1]; Ki STAT5a versus Ki STAT5b) | IC50 ([1]; wild-type STAT5b) [µM] | Ki ([1]; wild-type STAT5b, Ki calculated from IC50 with published equation, n=6) [µM] | IC50 ([2]; STAT5a Trp566Arg) [µM] | Ki ([2]; STAT5a Trp566Arg, Ki calculated from IC50, n=4) [µM] | increase of activity against STAT5a Trp566Arg compared to wild type STAT5a ([2]; ratio of Ki values) [fold] | Compound | Kd ([1]; Kd, fluorescent tracer peptide binding to STAT5b) | Kd [2] [µM]
1 |  |  |  |  |  |  | CC(C)C[C@H](NC(=O)[C@H](Cc1ccc(OP(=O)(O)O)cc1)NC(=O)CNC(=O)c1ccc2c(c1)C(=O)OC21c2ccc(O)cc2Oc2cc(O)ccc21)C(=O)N[C@H](C(=O)N[C@@H](CC(C)C)C(=O)N[C@@H](CC(=O)O)C(=O)N[C@@H](CCCCN)C(=O)N[C@@H](Cc1c[nH]c2ccccc12)C(=O)O)C(C)C [5-carboxyfluorescein-GY(PO3H2)LVLDKW] | 0.082 µM and 0.095 µM | 0.043
2 | fivefold | 59.5 ± 3.6 | 29.3 ± 1.8 | 21 ± 1.5 | 10.2 ± 0.7 | 14 | O=C(O)c1ccccc1OP(=O)(O)O [fosfosal, O‐phosphorylated salicylic acid] |  | 

From article PMC7496286, “The Selectivity of Fosfosal for STAT5b over STAT5a is Mediated by Arg566 in the Linker Domain” (Chembiochem, 2020)
